Assay results: patent publication US20250049948A1, “NOVEL IONIZABLE LIPIDS AND LIPID NANOPARTICLES AND METHODS OF USING THE SAME” (Sail Biomedicines, Inc., priority 2021, published 2025)

Legend:
[1] = LNP size and polydispersity, Zetasizer Ultra; assay type: physicochemical
Protocol: (§1) For each LNP composition, the lipid mix and mRNA solution were mixed at a 1:3 ratio by volume, respectively, on a NanoAssemblr Ignite (Precision Nanosystems) at a total flow rate of 9 mL/min. The resulting compositions were then loaded into Slide-A-Lyzer G2 dialysis cassettes (10 k MWCO) and dialyzed in 200 times sample volume of 1×PBS for 2 hours at room temperature with gentle stirring. The PBS was refreshed, and the compositions were further dialyzed for at least 14 hours at 4° C. with gentle stirring. The dialyzed compositions were then collected and concentrated by centrifugation at 3000×g using Amicon Ultra centrifugation filters (100 k MWCO). The concentrated particles were characterized for size, polydispersity, and particle concentration using Zetasizer Ultra (Malvern Panalytical) and for mRNA encapsulation efficiency using Quant-iT RiboGreen RNA Assay Kit (ThermoFisher Scientific).

[2] = mRNA encapsulation efficiency, Quant-iT RiboGreen RNA Assay; assay type: physicochemical
Protocol: as §1

[3] = test system: Balb/c mice; test: EPO levels in plasma, EPO MSD kit (Example 6); assay type: in vivo; settings: mRNA dose 5 μg FLUC + 5 μg EPO, intravenous
[4] = test system: Balb/c mice; test: In-vivo bioluminescent imaging of LNP compositions (Example 6); settings: for Bioluminescence (IV) Liver / Bioluminescence (IV) Lung / Bioluminescence (IV) Spleen / Bioluminescence (IV) Whole Body: 4-6 hours post-dose; for Spleen: Liver Ratio: intravenous
[5] = Apparent LNP pKa, TNS assay; assay type: physicochemical; settings: LNP with FLUC/EPO 1:1 mRNA
Protocol: For pKa measurement, a […] assay was conducted according to those described in Sabnis et al., Molecular Therapy, 26(6):1509-19), which is incorporated herein by reference in its entirety. Briefly, 20 buffers (10 mM sodium phosphate, 10 mM sodium borate, 10 mM sodium citrate, and 150 mM sodium chloride, in distilled Water) of unique pH values ranging from 3.0-12.0 were prepared using 1M sodium hydroxide and 1M hydrochloric acid. 3.25 μL of a LNP composition (0.04 mg/mL mRNA, in PBS) was incubated with 2 μL of TNS reagent (0.3 mM, in DMSO) and 90 μL of buffer for each pH value (described above) in a 96-well black-walled plate. Each pH condition was performed in triplicate wells. The TNS fluorescence was measured using a Biotek Cytation Plate reader at excitation/emission wavelengths of 321/445 nm. The fluorescence values were then plotted and fit using a 4-parameter sigmoid curve. From the fit, the pH value yielding the half-maximal fluorescence was calculated and reported as the apparent LNP pKa value.

[6] = mRNA dose 5 μg FLUC (CRE/FLUC 1:1 LNP)

Structure (SMILES) | PDI ([1]; LNP with FLUC/EPO 1:1 mRNA) | Size (nm) ([1]; LNP with FLUC/EPO 1:1 mRNA) | % EE ([2]; LNP with FLUC/EPO 1:1 mRNA) | PDI ([1]; LNP with CRE/FLUC 1:1 mRNA) | Size (nm) ([1]; LNP with CRE/FLUC 1:1 mRNA) | % EE ([2]; LNP with CRE/FLUC 1:1 mRNA) | Bioluminescence (IV) Liver ([4]; mRNA dose 5 μg FLUC + 5 μg EPO) | Bioluminescence (IV) Lung ([4]; mRNA dose 5 μg FLUC + 5 μg EPO) | Bioluminescence (IV) Spleen ([4]; mRNA dose 5 μg FLUC + 5 μg EPO) | Bioluminescence (IV) Whole Body ([4]; mRNA dose 5 μg FLUC + 5 μg EPO) | Spleen: Liver Ratio ([4]; mRNA dose 5 μg FLUC + 5 μg EPO) | Bioluminescence (IV) Liver [4, 6] | Bioluminescence (IV) Lung [4, 6] | Bioluminescence (IV) Spleen [4, 6] | Bioluminescence (IV) Whole Body [4, 6] | Spleen: Liver Ratio [4, 6] | other results
CCCCCCC(CCCCCC)CCCOC(=O)CCCCCCCN(CCCCCCCC(=O)OCCCC(CCCCCC)CCCCCC)CCOCCOCCN(C)C [Compound 2145, 4-hexyldecyl 11-(8-((4-hexyldecyl)oxy)-8-oxooctyl)-2-methyl-5,8-dioxa-2,11-diazanonadecan-19-oate] | 0.21 | 95.4 nm | 97.6% |  |  |  | 1.1E + 05 | 7.2E + 04 | 1.2E + 03 | 4.0E + 03 | 0.012 |  |  |  |  |  | hEPO [3]: 8.4E + 02
CCCCCC(CCCCC)CCCOC(=O)CCCCCCCN(CCCCCCCC(=O)OCCCC(CCCCC)CCCCC)CCCCN(C)C [Compound 2129, bis(4-pentylnonyl) 8,8′-((4-(dimethylamino)butyl)azanediyl) dioctanoate] |  |  |  | 0.07 | 81.1 nm | 97.0% |  |  |  |  |  | 1.4E + 05 | 2.1E + 03 | 9.2E + 03 | 1.9E + 04 | 0.066 | 
CCCCCCC(CCCCCC)CCCOC(=O)CCCCCN(CCCCCC(=O)OCCCC(CCCCCC)CCCCCC)CCC(O)CN(C)C (centres unmarked) [Compound 2140, bis(4-hexyldecyl) 6.6′-((4-(dimethylamino)-3-hydroxybutyl)azanediyl)dihexanoate] |  |  |  | 0.16 | 86.9 nm | 96.9% |  |  |  |  |  | 1.6E + 03 | 5.3E + 03 | 1.2E + 05 | 4.3E + 04 | 76.18 | 
CCCCCC(CCCCC)CCCOC(=O)CCCCCCCN(CCCCCCCC(=O)OCCCC(CCCCC)CCCCC)CCOCCOCCN(C)C [Compound 2144, 4-pentylnonyl 2-methyl-11-(8-oxo-8-((4-pentylnonyl)oxy)octyl)-5,8-dioxa-2,11-diazanonadecan-19-oate] |  |  |  | 0.26 | 78.0 nm | 96.8% |  |  |  |  |  | 7.4E + 04 | 1.2E + 03 | 3.0E + 04 | 7.1E + 03 | 0.401 | PDI ([1]; LNP with EGFP mRNA): 0.29; Size (nm) ([1]; LNP with EGFP mRNA): 73.5 nm; % EE ([2]; LNP with EGFP mRNA): 98.3%
CCCCCCC(CCCCCC)CCCOC(=O)CCCCCN(CCCCCC(=O)OCCCC(CCCCCC)CCCCCC)C(=O)CCCN(C)C [Compound 2134, bis(4-hexyldecyl) 6,6′-((4-(dimethylamino)butanoyl)azanediyl) dihexanoate] |  |  |  | 0.11 | 92.9 nm | 98.3% |  |  |  |  |  | 7.5E + 04 | 1.4E + 03 | 4.3E + 03 | 5.4E + 03 | 0.063 | PDI ([1]; LNP with EGFP mRNA): 0.20; Size (nm) ([1]; LNP with EGFP mRNA): 107.1 nm; % EE ([2]; LNP with EGFP mRNA): 98.3%

Second part, led by results:

PDI ([1]; LNP with FLUC/EPO 1:1 mRNA) | Size (nm) ([1]; LNP with FLUC/EPO 1:1 mRNA) | % EE ([2]; LNP with FLUC/EPO 1:1 mRNA) | PDI ([1]; LNP with CRE/FLUC 1:1 mRNA) | Size (nm) ([1]; LNP with CRE/FLUC 1:1 mRNA) | % EE ([2]; LNP with CRE/FLUC 1:1 mRNA) | Structure (SMILES) | Bioluminescence (IV) Liver ([4]; mRNA dose 5 μg FLUC + 5 μg EPO) | Bioluminescence (IV) Lung ([4]; mRNA dose 5 μg FLUC + 5 μg EPO) | Bioluminescence (IV) Spleen ([4]; mRNA dose 5 μg FLUC + 5 μg EPO) | Bioluminescence (IV) Whole Body ([4]; mRNA dose 5 μg FLUC + 5 μg EPO) | Spleen: Liver Ratio ([4]; mRNA dose 5 μg FLUC + 5 μg EPO) | Bioluminescence (IV) Liver [4, 6] | Bioluminescence (IV) Lung [4, 6] | Bioluminescence (IV) Spleen [4, 6] | Bioluminescence (IV) Whole Body [4, 6] | Spleen: Liver Ratio [4, 6] | other results
0.11 | 88.81 nm | 96.8% |  |  |  | CCCCCCCCC(CCCCCC)C(=O)OCCCCCCN(CCCCCCOC(=O)C(CCCCCC)CCCCCCCC)CCOCCOCCN(C)C (centres unmarked) [Compound 2216, 11-(6-((2-hexyldecanoyl)oxy)hexyl)-2-methyl-5,8-dioxa-2,11-diazaheptadecan-17-yl 2-hexyldecanoate] | 3.2E + 05 | 9.0E + 03 | 3.8E + 05 | 1.5E + 06 | 1.539 |  |  |  |  |  | pKa (TNS) [5]: 7
0.1 | 80.18 nm | 96.3% |  |  |  | CCCCCCCCC(CCCCCC)C(=O)OCCCCCCN(CCCCCCOC(=O)C(CCCCCC)CCCCCCCC)C(=O)CCN1CCCC1 (centres unmarked) [Compound 2215, ((3-(pyrrolidin-1-yl)propanoyl)azanediyl)bis (hexane-6,1-diyl) bis(2-hexyldecanoate)] | 2.2E + 06 | 6.5E + 04 | 6.6E + 05 | 3.2E + 07 | 0.449 |  |  |  |  |  | pKa (TNS) [5]: 7.12
